SMILES strings stand for the structures.

In the first test the test system is NCI-H1355. Nature of the test: relative viability (nuclei count vs DMSO), 5 days (fraction); higher = more cells survive. To be noted: first compound 0.8 µM. Summed up:
(§1)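 Lung cancer cell lines in 1536-well plates got either a single drug or a fixed anchor-drug dose together with five library-drug doses (not always all listed) in √10 steps, by pin tool, on the day after seeding. Nuclei were counted after 5 days, and relative viability is the treated-to-vehicle ratio of nuclei counts. Values are medians of duplicate plates.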
`CCCCCCCCCCCC1=C(O)C(=O)C=C(O)C1=O` [Embelin] + N=C(N)NC(=N)NCCc1ccccc1 [Phenformin] (partner 250 µM) had a relative viability of 0.535.
For `CCCCCCCCCCCC1=C(O)C(=O)C=C(O)C1=O` [Embelin] + CCNC(=O)c1noc(-c2cc(C(C)C)c(O)cc2O)c1-c1ccc(CN2CCOCC2)cc1 [Luminespib] (partner 0.01 µM), the relative viability came to 0.847.
For `CCCCCCCCCCCC1=C(O)C(=O)C=C(O)C1=O` [Embelin] + Cc1nc(Nc2ncc(C(=O)Nc3c(C)cccc3Cl)s2)cc(N2CCN(CCO)CC2)n1 [Dasatinib] (partner 0.075 µM), the relative viability amounted to 0.808.
With `CCCCCCCCCCCC1=C(O)C(=O)C=C(O)C1=O` [Embelin] + COc1cccc2cc(-c3nc([C@H]4CC[C@H](C(=O)O)CC4)n4ncnc(N)c34)[nH]c12 [OSI-027] (partner 0.5 µM), the relative viability was determined as 0.559.
The same measure, in the same setting: for `CCCCCCCCCCCC1=C(O)C(=O)C=C(O)C1=O` [Embelin] + Nc1nc2[nH]cc(CCc3ccc(C(=O)N[C@@H](CCC(=O)O)C(=O)O)cc3)c2c(=O)[nH]1 [Pemetrexed] (partner 0.2 µM) the value was 1.13.

The same test, now with this note: first compound 2.53 µM.
`CCCCCCCCCCCC1=C(O)C(=O)C=C(O)C1=O` [Embelin] + N=C(N)NC(=N)NCCc1ccccc1 [Phenformin] (partner 250 µM) returned a relative viability of 0.442.
Compound `CCCCCCCCCCCC1=C(O)C(=O)C=C(O)C1=O` [Embelin] + CCNC(=O)c1noc(-c2cc(C(C)C)c(O)cc2O)c1-c1ccc(CN2CCOCC2)cc1 [Luminespib] (partner 0.01 µM) registered a relative viability of 0.837.
Regarding `CCCCCCCCCCCC1=C(O)C(=O)C=C(O)C1=O` [Embelin] + Cc1nc(Nc2ncc(C(=O)Nc3c(C)cccc3Cl)s2)cc(N2CCN(CCO)CC2)n1 [Dasatinib] (partner 0.075 µM), the relative viability was determined as 0.845.
Turning to `CCCCCCCCCCCC1=C(O)C(=O)C=C(O)C1=O` [Embelin] + COc1cccc2cc(-c3nc([C@H]4CC[C@H](C(=O)O)CC4)n4ncnc(N)c34)[nH]c12 [OSI-027] (partner 0.5 µM), the relative viability was found to be 0.422.
The compound `CCCCCCCCCCCC1=C(O)C(=O)C=C(O)C1=O` [Embelin] + Nc1nc2[nH]cc(CCc3ccc(C(=O)N[C@@H](CCC(=O)O)C(=O)O)cc3)c2c(=O)[nH]1 [Pemetrexed] (partner 0.2 µM) had a relative viability of 1.12.

The test is the same for the next values; noted with them: first compound 8 µM.
Regarding `CCCCCCCCCCCC1=C(O)C(=O)C=C(O)C1=O` [Embelin] + N=C(N)NC(=N)NCCc1ccccc1 [Phenformin] (partner 250 µM), the relative viability was found to be 0.392.
`CCCCCCCCCCCC1=C(O)C(=O)C=C(O)C1=O` [Embelin] + CCNC(=O)c1noc(-c2cc(C(C)C)c(O)cc2O)c1-c1ccc(CN2CCOCC2)cc1 [Luminespib] (partner 0.01 µM) showed a relative viability of 0.657.
Regarding `CCCCCCCCCCCC1=C(O)C(=O)C=C(O)C1=O` [Embelin] + Cc1nc(Nc2ncc(C(=O)Nc3c(C)cccc3Cl)s2)cc(N2CCN(CCO)CC2)n1 [Dasatinib] (partner 0.075 µM), the relative viability came to 0.586.
Same read-out and setting: for `CCCCCCCCCCCC1=C(O)C(=O)C=C(O)C1=O` [Embelin] + COc1cccc2cc(-c3nc([C@H]4CC[C@H](C(=O)O)CC4)n4ncnc(N)c34)[nH]c12 [OSI-027] (partner 0.5 µM) the value was 0.279.
The same measure, in the same setting: for `CCCCCCCCCCCC1=C(O)C(=O)C=C(O)C1=O` [Embelin] + Nc1nc2[nH]cc(CCc3ccc(C(=O)N[C@@H](CCC(=O)O)C(=O)O)cc3)c2c(=O)[nH]1 [Pemetrexed] (partner 0.2 µM) the value was 0.784.

For another test, the system named is NCI-H1563. The description is as above. To be noted: first compound 0.08 µM. The essentials:
as §1
In turn, `CCCCCCCCCCCC1=C(O)C(=O)C=C(O)C1=O` [Embelin] + N=C(N)NC(=N)NCCc1ccccc1 [Phenformin] (partner 250 µM) returned a relative viability of 0.711.
As for `CCCCCCCCCCCC1=C(O)C(=O)C=C(O)C1=O` [Embelin] + CCNC(=O)c1noc(-c2cc(C(C)C)c(O)cc2O)c1-c1ccc(CN2CCOCC2)cc1 [Luminespib] (partner 0.01 µM), the relative viability was 0.568.
On the same count and under the same terms, for `CCCCCCCCCCCC1=C(O)C(=O)C=C(O)C1=O` [Embelin] + Cc1nc(Nc2ncc(C(=O)Nc3c(C)cccc3Cl)s2)cc(N2CCN(CCO)CC2)n1 [Dasatinib] (partner 0.075 µM) the value was 0.475.
In the case of `CCCCCCCCCCCC1=C(O)C(=O)C=C(O)C1=O` [Embelin] + COc1cccc2cc(-c3nc([C@H]4CC[C@H](C(=O)O)CC4)n4ncnc(N)c34)[nH]c12 [OSI-027] (partner 0.5 µM), the relative viability was found to be 0.65.
Same read-out and setting: the figure for `CCCCCCCCCCCC1=C(O)C(=O)C=C(O)C1=O` [Embelin] + Nc1nc2[nH]cc(CCc3ccc(C(=O)N[C@@H](CCC(=O)O)C(=O)O)cc3)c2c(=O)[nH]1 [Pemetrexed] (partner 0.2 µM) is 0.742.

Still in this test, the particulars now being: first compound 0.8 µM.
`CCCCCCCCCCCC1=C(O)C(=O)C=C(O)C1=O` [Embelin] + N=C(N)NC(=N)NCCc1ccccc1 [Phenformin] (partner 250 µM) came in with a relative viability of 0.728.
Still for that read-out and setting: for `CCCCCCCCCCCC1=C(O)C(=O)C=C(O)C1=O` [Embelin] + CCNC(=O)c1noc(-c2cc(C(C)C)c(O)cc2O)c1-c1ccc(CN2CCOCC2)cc1 [Luminespib] (partner 0.01 µM) the value was 0.573; for `CCCCCCCCCCCC1=C(O)C(=O)C=C(O)C1=O` [Embelin] + Cc1nc(Nc2ncc(C(=O)Nc3c(C)cccc3Cl)s2)cc(N2CCN(CCO)CC2)n1 [Dasatinib] (partner 0.075 µM), 0.447; for `CCCCCCCCCCCC1=C(O)C(=O)C=C(O)C1=O` [Embelin] + COc1cccc2cc(-c3nc([C@H]4CC[C@H](C(=O)O)CC4)n4ncnc(N)c34)[nH]c12 [OSI-027] (partner 0.5 µM), 0.772.
Same read-out and setting: the figure for `CCCCCCCCCCCC1=C(O)C(=O)C=C(O)C1=O` [Embelin] + Nc1nc2[nH]cc(CCc3ccc(C(=O)N[C@@H](CCC(=O)O)C(=O)O)cc3)c2c(=O)[nH]1 [Pemetrexed] (partner 0.2 µM) is 0.767.

The same test, now with this note: first compound 2.53 µM.
For `CCCCCCCCCCCC1=C(O)C(=O)C=C(O)C1=O` [Embelin] + N=C(N)NC(=N)NCCc1ccccc1 [Phenformin] (partner 250 µM), the relative viability came to 0.626.
In turn, `CCCCCCCCCCCC1=C(O)C(=O)C=C(O)C1=O` [Embelin] + CCNC(=O)c1noc(-c2cc(C(C)C)c(O)cc2O)c1-c1ccc(CN2CCOCC2)cc1 [Luminespib] (partner 0.01 µM) had a relative viability of 0.526.
The same measure, in the same setting: for `CCCCCCCCCCCC1=C(O)C(=O)C=C(O)C1=O` [Embelin] + Cc1nc(Nc2ncc(C(=O)Nc3c(C)cccc3Cl)s2)cc(N2CCN(CCO)CC2)n1 [Dasatinib] (partner 0.075 µM) the value was 0.405.
The same measure, in the same setting: the figure for `CCCCCCCCCCCC1=C(O)C(=O)C=C(O)C1=O` [Embelin] + COc1cccc2cc(-c3nc([C@H]4CC[C@H](C(=O)O)CC4)n4ncnc(N)c34)[nH]c12 [OSI-027] (partner 0.5 µM) is 0.71; for `CCCCCCCCCCCC1=C(O)C(=O)C=C(O)C1=O` [Embelin] + Nc1nc2[nH]cc(CCc3ccc(C(=O)N[C@@H](CCC(=O)O)C(=O)O)cc3)c2c(=O)[nH]1 [Pemetrexed] (partner 0.2 µM) it is 0.693.

The same test, now with this note: first compound 8 µM.
The compound `CCCCCCCCCCCC1=C(O)C(=O)C=C(O)C1=O` [Embelin] + N=C(N)NC(=N)NCCc1ccccc1 [Phenformin] (partner 250 µM) registered a relative viability of 0.578.

The values above are taken from the supplement of paper PMC10307832.
